Ratio Ki and Ki data for five compounds are collected here from ChEMBL document CHEMBL4428052, “Substrate-Guided Design of Selective FXIIa Inhibitors Based on the Plant-Derived Momordica cochinchinensis Trypsin Inhibitor-II (MCoTI-II) Scaffold” (J Med Chem, 2016).

For test [1], the species on record is Homo sapiens. The test can be described thus: Selectivity ratio of Ki for factor 10a (unknown origin) to Ki for factor 12a (unknown origin).
Test [2] has as its target T1, Coagulation factor XII (Homo sapiens, UniProt P00748).
T1 sequence (P00748 whole entry): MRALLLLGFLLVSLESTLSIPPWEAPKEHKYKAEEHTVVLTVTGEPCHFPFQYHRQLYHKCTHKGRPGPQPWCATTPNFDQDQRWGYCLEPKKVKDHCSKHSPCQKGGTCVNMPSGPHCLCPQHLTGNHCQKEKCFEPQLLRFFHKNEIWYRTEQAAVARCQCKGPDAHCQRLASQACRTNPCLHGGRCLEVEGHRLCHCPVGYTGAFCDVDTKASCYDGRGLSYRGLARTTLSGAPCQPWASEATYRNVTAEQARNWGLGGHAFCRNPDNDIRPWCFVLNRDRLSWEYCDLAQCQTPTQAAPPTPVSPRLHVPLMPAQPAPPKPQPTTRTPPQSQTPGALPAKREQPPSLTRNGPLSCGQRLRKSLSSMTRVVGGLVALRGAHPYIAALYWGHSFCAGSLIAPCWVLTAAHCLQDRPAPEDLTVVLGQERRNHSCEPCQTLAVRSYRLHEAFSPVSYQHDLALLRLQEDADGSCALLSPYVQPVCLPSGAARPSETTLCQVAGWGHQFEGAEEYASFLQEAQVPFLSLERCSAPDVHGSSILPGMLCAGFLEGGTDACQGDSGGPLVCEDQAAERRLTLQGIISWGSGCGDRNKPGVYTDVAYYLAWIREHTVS
The test can be described thus: Inhibition of factor 12a (unknown origin) using Ac-QRFRpNA as substrate incubated for 30 mins measured for 7 mins by morrison plot analysis.

Test [3] concerns the target Coagulation factor X (Homo sapiens, UniProt P00742). Description: Inhibition of factor 10a (unknown origin) using Ac-QRSRpNA as substrate incubated for 30 mins measured for 7 mins by morrison plot analysis.
Test [4] is filed under the species Homo sapiens. Description: Selectivity ratio of Ki for human plasma kallikrein to Ki for factor 12a (unknown origin).
Test [5] addresses Urokinase-type plasminogen activator (Homo sapiens, UniProt P00749). Description: Inhibition of uPA (unknown origin) incubated for 30 mins measured for 7 mins by morrison plot analysis.
The target of test [6] is Prothrombin (Homo sapiens, UniProt P00734). The test can be described thus: Inhibition of thrombin (unknown origin) using Ac-ATPRpNA as substrate incubated for 30 mins measured for 7 mins by morrison plot analysis.
The species named for test [7] is Homo sapiens. The test can be described thus: Selectivity ratio of Ki for factor 12a (unknown origin) to Ki for factor 10a (unknown origin).

pKi: −log10 of the molar value. Peptide text beside a SMILES is read from it.

Chain of Coagulation factor X (P00742 41-179 limits assumed): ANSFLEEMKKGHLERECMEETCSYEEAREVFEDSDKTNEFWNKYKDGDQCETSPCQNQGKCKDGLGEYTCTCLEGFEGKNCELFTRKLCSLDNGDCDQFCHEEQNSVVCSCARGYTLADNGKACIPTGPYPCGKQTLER
Chain of Coagulation factor X (P00742 235-488 limits assumed): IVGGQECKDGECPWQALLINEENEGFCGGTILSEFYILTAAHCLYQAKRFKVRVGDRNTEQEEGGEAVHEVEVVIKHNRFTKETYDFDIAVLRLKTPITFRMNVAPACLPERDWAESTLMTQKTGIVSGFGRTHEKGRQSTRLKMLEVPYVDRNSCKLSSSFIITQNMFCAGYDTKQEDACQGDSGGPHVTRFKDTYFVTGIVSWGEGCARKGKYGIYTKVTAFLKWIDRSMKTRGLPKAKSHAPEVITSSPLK

Take `CC(=O)N[C@@H](CCC(N)=O)C(=O)N[C@@H](CCCNC(=N)N)C(=O)N[C@@H](Cc1ccccc1)C(=O)N[C@H](C=O)CCCNC(=N)N` (Ac-QRFR-aldehyde): in test [1], the Ratio Ki was 3. Further, the negative logarithm of the Ki (pKi) in test [2] was 6.74; in test [3], 6.24.

For the compound `CC[C@H](C)[C@@H]1NC(=O)[C@H](CCCNC(=N)N)NC(=O)[C@H](Cc2ccccc2)NC(=O)[C@H](NC(=O)[C@H](CCC(N)=O)NC(=O)CNC(=O)[C@@H](N)CCCCN)CSSC[C@H]2NC(=O)[C@H](C)NC(=O)CNC(=O)[C@@H]3CCCN3C(=O)[C@@H]3CSSC[C@H](C(=O)NCC(=O)N[C@@H](CO)C(=O)NCC(=O)N[C@@H](CO)C(=O)N[C@@H](CC(=O)O)C(=O)O)NC(=O)[C@H](Cc4ccc(O)cc4)NC(=O)CNC(=O)[C@H](CC(N)=O)NC(=O)CNC(=O)[C@H](CCCNC(=N)N)NC(=O)[C@H](CSSC[C@H](NC(=O)[C@H](CCCCN)NC(=O)[C@H](CCCCN)NC(=O)[C@H](Cc4c[nH]c5ccccc45)NC1=O)C(=O)N[C@@H](CCCNC(=N)N)C(=O)N[C@@H](CCCNC(=N)N)C(=O)N[C@@H](CC(=O)O)C(=O)N[C@@H](CO)C(=O)N[C@@H](CC(=O)O)C(=O)N3)NC(=O)[C@H]([C@@H](C)CC)NC2=O`, the Ratio Ki in test [4] is 9. Also, the results for the pKi in test [5], in test [6] and in test [3] were less than 4.30, less than 4.30 and less than 4.00, respectively.

As for `CC(=O)N[C@@H](CCC(N)=O)C(=O)N[C@@H](CCCNC(=N)N)C(=O)N[C@@H](CO)C(=O)N[C@H](C=O)CCCNC(=N)N` (Ac-QRSR-aldehyde), the Ratio Ki in test [7] was 6. Moreover, the pKi in test [2] was 5.62; in test [3], 6.44.

For the compound `CC[C@H](C)[C@@H]1NC(=O)[C@H](CCCNC(=N)N)NC(=O)[C@H](Cc2ccccc2)NC(=O)[C@H](NC(=O)[C@H](CCC(N)=O)NC(=O)CNC(=O)CN)CSSC[C@H]2NC(=O)[C@H](C)NC(=O)CNC(=O)[C@@H]3CCCN3C(=O)[C@@H]3CSSC[C@H](C(=O)NCC(=O)N[C@@H](CO)C(=O)NCC(=O)N[C@@H](CO)C(=O)N[C@@H](CC(=O)O)C(=O)O)NC(=O)[C@H](Cc4ccc(O)cc4)NC(=O)CNC(=O)[C@H](CC(N)=O)NC(=O)CNC(=O)[C@H](CCCNC(=N)N)NC(=O)[C@H](CSSC[C@H](NC(=O)[C@H](CCCCN)NC(=O)[C@H](CCCCN)NC(=O)[C@H](CC(C)C)NC1=O)C(=O)N[C@@H](CCCNC(=N)N)C(=O)N[C@@H](CCCNC(=N)N)C(=O)N[C@@H](CC(=O)O)C(=O)N[C@@H](CO)C(=O)N[C@@H](CC(=O)O)C(=O)N3)NC(=O)[C@H]([C@@H](C)CC)NC2=O`, the Ratio Ki in test [1] came out at 4. The pKi in test [5] was less than 5.00; in test [6], less than 5.00; in test [3] it was 6.34.

As for `CC[C@H](C)[C@@H]1NC(=O)[C@H](CCCCN)NC(=O)[C@@H]2CCCN2C(=O)[C@H](NC(=O)[C@@H](NC(=O)CNC(=O)CN)C(C)C)CSSC[C@H]2NC(=O)[C@H](C)NC(=O)CNC(=O)[C@@H]3CCCN3C(=O)[C@@H]3CSSC[C@H](C(=O)NCC(=O)N[C@@H](CO)C(=O)NCC(=O)N[C@@H](CO)C(=O)N[C@@H](CC(=O)O)C(=O)O)NC(=O)[C@H](Cc4ccc(O)cc4)NC(=O)CNC(=O)[C@H](CC(N)=O)NC(=O)CNC(=O)[C@H](CCCNC(=N)N)NC(=O)[C@H](CSSC[C@H](NC(=O)[C@H](CCCCN)NC(=O)[C@H](CCCCN)NC(=O)[C@H](CC(C)C)NC1=O)C(=O)N[C@@H](CCCNC(=N)N)C(=O)N[C@@H](CCCNC(=N)N)C(=O)N[C@@H](CC(=O)O)C(=O)N[C@@H](CO)C(=O)N[C@@H](CC(=O)O)C(=O)N3)NC(=O)[C@H]([C@@H](C)CC)NC2=O`, the pKi in test [5], in test [6] and in test [3] was less than 5.00 in each case.

A word on the pKi: it is the Ki on a negative log10 scale, so that one unit is a factor of ten. Read a low pKi as a large Ki.
